Measured values from patent US10570179B2, “Substituted urea depsipeptide analogs as activators of the CLPP endopeptidase” (priority 2016, dated 2020).
Converted amounts (≈) assume the structure as drawn. Like-named read-outs stand apart in the source and are kept apart here. Numbered stars: 1 amine (or outer) side, 2 acyl side, 3 side chain; on linkers, the order of the positions; unused ones are H or OH. Bridge positions count the residues as written; N and C are the ends. Square brackets hold non-standard residues; d marks the D form. Peptide text beside a SMILES is read from it. * marks the point of attachment. Piperazine(2S-CO,4-Me) = CN1CCN[C@H](C(=O)O)C1; Morpholine(3S-CO) = O=C(O)[C@@H]1COCCN1; Phe(3-Me) = Cc1cccc(C[C@H](N)C(=O)O)c1; X4 = O=C1CN([*:1])[C@H](C(=O)[*:2])CN1; Pro(4R-Me) = C[C@H]1CN[C@H](C(=O)O)C1; Hyp = O=C(O)[C@@H]1C[C@@H](O)CN1; NH(3-Cl-phenyl) = Clc1cccc(N*)c1; NH(4-Cl-phenyl) = Clc1ccc(N*)cc1; aThr = C[C@H](O)[C@H](N)C(=O)O; CO = O=C([*:1])[*:2]

Legend:
S. aureus ClpP (Sa-ClpP) = biological target: T1, S. aureus ClpP (Sa-ClpP) (Staphylococcus aureus, UniProt Q2G036); test: Casein-BODIPY digestion assay (ClpP activation); assay type: biochemical
T1 construct: made in house; host or cells: E. coli BL21 (DE3)
T1 sequence (Q2G036 whole entry): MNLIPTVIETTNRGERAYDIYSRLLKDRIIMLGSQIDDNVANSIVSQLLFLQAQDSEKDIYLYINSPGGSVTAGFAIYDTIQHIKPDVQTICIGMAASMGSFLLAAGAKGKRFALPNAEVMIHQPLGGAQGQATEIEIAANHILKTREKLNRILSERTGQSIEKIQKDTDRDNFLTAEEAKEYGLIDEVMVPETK

S. aureus ΔClpP = test: Minimal inhibitory concentration, microbroth dilution; assay type: cell-based, Staphylococcus aureus; conditions: MIC; ClpP inactivated
How it was run: (§1)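 Compound was diluted twofold in the appropriate broth. Bacterial suspension (approx. 10^5 cfu/mL) was then added in equal volume, giving a maximum test concentration of 200 μM. After aerobic overnight incubation at 37 °C, wells were inspected visually for growth.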

E. faecails = test: as above; assay type: cell-based; conditions: Enterococcus faecalis
How it was run: as §1

MRSA NRS70 = test: as above; assay type: cell-based; conditions: Staphylococcus aureus
How it was run: as §1

S. aureus ATCC 29213 = test: as above; assay type: cell-based; conditions: Staphylococcus aureus
How it was run: as §1

S. aureus USA 300 = test: as above; assay type: cell-based; conditions: Staphylococcus aureus
How it was run: as §1

[1] = read-out: Minimal Inhibitory Concentrations (μM) E. faecails, MIC
[2] = read-out: Minimal Inhibitory Concentrations (μM) MRSA NRS70, MIC
[3] = ATCC29213, read-out: Minimal Inhibitory Concentrations (μM) S. aureus ATCC 29213, MIC
[4] = USA300, read-out: Minimal Inhibitory Concentrations (μM) S. aureus USA 300, MIC

Structure (SMILES): Cc1cccc(C[C@H](NC(=O)Nc2ccc(Cl)cc2)C(=O)N[C@@H]2C(=O)N3C[C@H](O)C[C@H]3C(=O)N3CCN(C)C[C@H]3C(=O)N[C@@H](C)C(=O)N3C[C@H](C)C[C@H]3C(=O)O[C@H]2C)c1 [Compound 68, (S)-2-(3-(4-CHLOROPHENYL)UREIDO)-N-((6AS,8R,12S,13S,15AS,17R,21S,23AS)-8-HYDROXY-2,13,17,21-TETRAMETHYL-6,11,15,20,23-PENTAOXOOCTADECAHYDRO-2H,6H,11H,15H-PYRAZINO[2,1-I]DIPYRROLO[2,1-C:2′,1′-L][1]OXA[4,7,10,13]TETRAAZACYCLOHEXADECIN-12-YL)-3-(M-TOLYL)PROPANAMIDE] ({NH(4-Cl-phenyl)-CO}-[Phe(3-Me)][aThr][Hyp][Piperazine(2S-CO,4-Me)]A[Pro(4R-Me)]; ester 2-C)
- EC50 (S. aureus ClpP (Sa-ClpP)): 290 ± 100 nM
- Minimal Inhibitory Concentrations (μM) S. aureus ΔClpP (S. aureus ΔClpP): >20 µM
- MIC (E. faecails; [1]): 0.625 µM (≈ 0.523 µg/mL)
- MIC (MRSA NRS70; [2]): 2.5 µM (≈ 2.09 µg/mL)
- MIC (S. aureus ATCC 29213; [3]): 1.25 µM (≈ 1.05 µg/mL)
- MIC (S. aureus USA 300; [4]): 0.625 µM (≈ 0.523 µg/mL)

Structure (SMILES): Cc1cccc(C[C@H](NC(=O)Nc2cccc(Cl)c2)C(=O)N[C@@H]2C(=O)N3C[C@H](O)C[C@H]3C(=O)N3CCN(C)C[C@H]3C(=O)N[C@@H](C)C(=O)N3C[C@H](C)C[C@H]3C(=O)O[C@H]2C)c1 [Compound 69, (S)-2-(3-(3-CHLOROPHENYL)UREIDO)-N-((6AS,8R,12S,13S,15AS,17R,21S,23AS)-8-HYDROXY-2,13,17,21-TETRAMETHYL-6,11,15,20,23-PENTAOXOOCTADECAHYDRO-2H,6H,11H,15H-PYRAZINO[2,1-I]DIPYRROLO[2,1-C:2′,1′-L][1]OXA[4,7,10,13]TETRAAZACYCLOHEXADECIN-12-YL)-3-(M-TOLYL)PROPANAMIDE] ({NH(3-Cl-phenyl)-CO}-[Phe(3-Me)][aThr][Hyp][Piperazine(2S-CO,4-Me)]A[Pro(4R-Me)]; ester 2-C)
- EC50 (S. aureus ClpP (Sa-ClpP)): 390 ± 800 nM
- Minimal Inhibitory Concentrations (μM) S. aureus ΔClpP (S. aureus ΔClpP): >20 µM
- MIC (E. faecails; [1]): 5 µM (≈ 4.19 µg/mL)
- MIC (MRSA NRS70; [2]): 5 µM (≈ 4.19 µg/mL)
- MIC (S. aureus ATCC 29213; [3]): 5 µM (≈ 4.19 µg/mL)
- MIC (S. aureus USA 300; [4]): 2.5 µM (≈ 2.09 µg/mL)

Structure (SMILES): CCc1ccc(NC(=O)N[C@@H](Cc2cccc(C)c2)C(=O)N[C@H]2COC(=O)[C@@H]3C[C@@H](C)CN3C(=O)[C@H](C)NC(=O)[C@@H]3CCCCN3C(=O)[C@@H]3CCCN3C2=O)cc1 [Compound 70, (S)—N-((2R,6S,8AS,14AS,20S,23AS)-2,6-DIMETHYL-5,8,14,19,23-PENTAOXOOCTADECAHYDRO-1H,5H,14H,19H-PYRIDO[2,1-I]DIPYRROLO[2,1-C:2′,1′-L][1]OXA[4,7,10,13]TETRAAZACYCLOHEXADECIN-20-YL)-2-(3-(4-ETHYLPHENYL)UREIDO)-3-(M-TOLYL)PROPANAMIDE]
- EC50 (S. aureus ClpP (Sa-ClpP)): 290 ± 100 nM
- Minimal Inhibitory Concentrations (μM) S. aureus ΔClpP (S. aureus ΔClpP): >20 µM
- MIC (E. faecails; MIC, read-out: Minimal Inhibitory Concentrations (μM) E. faecails): 0.156 µM (≈ 0.123 µg/mL)
- MIC (MRSA NRS70; MIC, read-out: Minimal Inhibitory Concentrations (μM) MRSA NRS70): 0.313 µM (≈ 0.246 µg/mL)
- MIC (S. aureus ATCC 29213; ATCC29213, MIC, read-out: Minimal Inhibitory Concentrations (μM) S. aureus ATCC 29213): 0.625 µM (≈ 0.491 µg/mL)
- MIC (S. aureus USA 300; USA300, MIC, read-out: Minimal Inhibitory Concentrations (μM) S. aureus USA 300): 0.313 µM (≈ 0.246 µg/mL)

Structure (SMILES): Cc1cccc(C[C@H](NC(=O)Nc2ccc(Cl)cc2)C(=O)N[C@H]2COC(=O)[C@@H]3C[C@@H](C)CN3C(=O)[C@H](C)NC(=O)[C@@H]3CCCCN3C(=O)[C@@H]3CCCN3C2=O)c1 [Compound 71, (S)-2-(3-(4-CHLOROPHENYL)UREIDO)-N-((2R,6S,8AS,14AS,20S,23AS)-2,6-DIMETHYL-5,8,14,19,23-PENTAOXOOCTADECAHYDRO-1H,5H,14H,19H-PYRIDO[2,1-I]DIPYRROLO[2,1-C:2′,1′-L][1]OXA[4,7,10,13]TETRAAZACYCLOHEXADECIN-20-YL)-3-(M-TOLYL)PROPANAMIDE]
- EC50 (S. aureus ClpP (Sa-ClpP)): 250 ± 100 nM
- Minimal Inhibitory Concentrations (μM) S. aureus ΔClpP (S. aureus ΔClpP): >20 µM
- MIC (E. faecails; [1]): 0.313 µM (≈ 0.248 µg/mL)
- MIC (MRSA NRS70; [2]): 0.313 µM (≈ 0.248 µg/mL)
- MIC (S. aureus ATCC 29213; [3]): 0.625 µM (≈ 0.495 µg/mL)
- MIC (S. aureus USA 300; [4]): 0.625 µM (≈ 0.495 µg/mL)

Structure (SMILES): Cc1cccc(C[C@H](NC(=O)Nc2ccc(Cl)cc2)C(=O)N[C@@H]2C(=O)N3C[C@H](O)C[C@H]3C(=O)N3CCOC[C@H]3C(=O)N[C@@H](C)C(=O)N3C[C@H](C)C[C@H]3C(=O)O[C@H]2C)c1 [Compound 73, (S)-2-(3-(4-CHLOROPHENYL)UREIDO)-N-((6AS,8R,12S,13S,15AS,17R,21S,23AS)-8-HYDROXY-13,17,21-TRIMETHYL-6,11,15,20,23-PENTAOXOOCTADECAHYDRO-6H,11H,15H-[1,4]OXAZINO[3,4-I]DIPYRROLO[2,1-C:2′,1′-L][1]OXA[4,7,10,13]TETRAAZACYCLOHEXADECIN-12-YL)-3-(M-TOLYL)PROPANAMIDE] ({NH(4-Cl-phenyl)-CO}-[Phe(3-Me)][aThr][Hyp][Morpholine(3S-CO)]A[Pro(4R-Me)]; ester 2-C)
- EC50 (S. aureus ClpP (Sa-ClpP)): 250 ± 100 nM
- Minimal Inhibitory Concentrations (μM) S. aureus ΔClpP (S. aureus ΔClpP): >20 µM
- MIC (E. faecails; [1]): 0.625 µM (≈ 0.515 µg/mL)
- MIC (MRSA NRS70; [2]): 2.5 µM (≈ 2.06 µg/mL)
- MIC (S. aureus ATCC 29213; [3]): 2.5 µM (≈ 2.06 µg/mL)
- MIC (S. aureus USA 300; [4]): 0.625 µM (≈ 0.515 µg/mL)

Structure (SMILES): Cc1cccc(C[C@H](NC(=O)Nc2cccc(Cl)c2)C(=O)N[C@@H]2C(=O)N3C[C@H](O)C[C@H]3C(=O)N3CCOC[C@H]3C(=O)N[C@@H](C)C(=O)N3C[C@H](C)C[C@H]3C(=O)O[C@H]2C)c1 [Compound 74, (S)-2-(3-(3-CHLOROPHENYL)UREIDO)-N-((6AS,8R,12S,13S,15AS,17R,21S,23AS)-8-HYDROXY-13,17,21-TRIMETHYL-6,11,15,20,23-PENTAOXOOCTADECAHYDRO-6H,11H,15H-[1,4]OXAZINO[3,4-I]DIPYRROLO[2,1-C:2′,1′-L][1]OXA[4,7,10,13]TETRAAZACYCLOHEXADECIN-12-YL)-3-(M-TOLYL)PROPANAMIDE] ({NH(3-Cl-phenyl)-CO}-[Phe(3-Me)][aThr][Hyp][Morpholine(3S-CO)]A[Pro(4R-Me)]; ester 2-C)
- EC50 (S. aureus ClpP (Sa-ClpP)): 250 ± 100 nM
- Minimal Inhibitory Concentrations (μM) S. aureus ΔClpP (S. aureus ΔClpP): >20 µM
- MIC (E. faecails; [1]): > 20 µM
- MIC (MRSA NRS70; [2]): 5 µM (≈ 4.12 µg/mL)
- MIC (S. aureus ATCC 29213; [3]): 5 µM (≈ 4.12 µg/mL)
- MIC (S. aureus USA 300; [4]): 1.25 µM (≈ 1.03 µg/mL)

Structure (SMILES): Cc1cccc(C[C@H](NC(=O)Nc2ccc(Cl)cc2)C(=O)N[C@@H]2C(=O)N3CCC[C@H]3C(=O)N3CC(=O)NC[C@H]3C(=O)N[C@@H](C)C(=O)N3C[C@H](C)C[C@H]3C(=O)O[C@H]2C)c1 [Compound 75, (S)-2-(3-(4-CHLOROPHENYL)UREIDO)-3-(M-TOLYL)-N-((6AS,12S,13S,15AS,17R,21S,23AS)-13,17,21-TRIMETHYL-3,6,11,15,20,23-HEXAOXOOCTADECAHYDRO-2H,6H,11H,15H-PYRAZINO[2,1-I]DIPYRROLO[2,1-C:2′,1′-L][1]OXA[4,7,10,13]TETRAAZACYCLOHEXADECIN-12-YL)PROPANAMIDE] ({NH(4-Cl-phenyl)-CO}-[Phe(3-Me)][aThr]P[X4]A[Pro(4R-Me)]; ester 2-C)
- EC50 (S. aureus ClpP (Sa-ClpP)): 1210 ± 1000 nM
- Minimal Inhibitory Concentrations (μM) S. aureus ΔClpP (S. aureus ΔClpP): >20 µM
- MIC (E. faecails; [1]): > 20 µM
- MIC (MRSA NRS70; [2]): 20 µM (≈ 16.4 µg/mL)
- MIC (S. aureus ATCC 29213; [3]): 20 µM (≈ 16.4 µg/mL)
- MIC (S. aureus USA 300; [4]): 10 µM (≈ 8.21 µg/mL)

Structure (SMILES): Cc1cccc(C[C@H](NC(=O)Nc2cccc(Cl)c2)C(=O)N[C@@H]2C(=O)N3CCC[C@H]3C(=O)N3CC(=O)NC[C@H]3C(=O)N[C@@H](C)C(=O)N3C[C@H](C)C[C@H]3C(=O)O[C@H]2C)c1 [Compound 76, (S)-2-(3-(3-CHLOROPHENYL)UREIDO)-3-(M-TOLYL)-N-((6AS,12S,13S,15AS,17R,21S,23AS)-13,17,21-TRIMETHYL-3,6,11,15,20,23-HEXAOXOOCTADECAHYDRO-2H,6H,11H,15H-PYRAZINO[2,1-I]DIPYRROLO[2,1-C:2′,1′-L][1]OXA[4,7,10,13]TETRAAZACYCLOHEXADECIN-12-YL)PROPANAMIDE] ({NH(3-Cl-phenyl)-CO}-[Phe(3-Me)][aThr]P[X4]A[Pro(4R-Me)]; ester 2-C)
- EC50 (S. aureus ClpP (Sa-ClpP)): 5020 nM
- Minimal Inhibitory Concentrations (μM) S. aureus ΔClpP (S. aureus ΔClpP): >20 µM
- MIC (E. faecails; [1]): > 20 µM
- MIC (MRSA NRS70; [2]): > 20 µM
- MIC (S. aureus ATCC 29213; [3]): > 20 µM
- MIC (S. aureus USA 300; [4]): > 20 µM
